Key:
[1] = test system: Rac1; assay: Rac1 activation assay (active GTPase pull-down) in N27 cells; type: cell-based, rat; details: 6 h post administration
Text: The NADPH oxidase is a multi-subunit enzyme that consists of the catalytic subunits (Nox isoforms) together with the regulatory subunits including p22phox, p47phox, p40phox, p67phox, Nox organizer 1 (Noxo1), Nox activator 1 (Noxa1), and small GTPase Rac1. In order to test whether dopaminergic (DA) cells are equipped with the NOX components, N27, a well-established rat DA cell line was examined (Prasad et al. 1994). The mRNAs encoding each Nox isoform and regulatory subunits were detected using RT-PCR. Since transcriptional induction of Nox1 and Nox4 has already been reported in several tissues under a variety of stimuli, transcripts were determined in both nontreated and 6-hydroxydopamine (6-OHDA), a DA neurodegenerative compound, treated DA cells. ROS generation as induced by 6-OHDA (100 μM) and subsequent cell death was observed. All Nox isoforms (Nox1, Nox2, Nox4, Duox1 and Duox2) except Nox3 and Nox5 were detected (FIG. 1A). […] Mitochondria, which have long been considered as a major source of ROS, play a key role in Nox1-mediated superoxide generation (Desouki et al. 2005). […] Cytoplasmic regulatory subunits including p47phox, Noxa1, and Noxo1 were constitutively expressed in DA cells as well (FIG. 1A). Noxa1 and Noxo1 are homologues of p67phox and p47phox, respectively. […] GTP-bound active Rac1 was measured in DA cells treated with 6-OHDA for various duration from 1 h to 6 h. […]

[2] = test system: N27 cells; assay: 8-oxo-dG immunostaining (oxidative DNA damage) in N27 cells; type: cell-based, rat
Text: To substantiate that nuclear Nox1/Rac1 complex produces superoxide, it was investigated whether selective inhibition of the Nox1/Rac1 complex attenuates ROS production. Adeno-associated virus serotype 2 (AAV2) expression cassettes with either Nox1 shRNA or a T17N dominant negative Rac1 variant were used to knockdown Nox1 or inhibit Rac1, respectively. These vectors separately expressed Green Fluorescent Protein (GFP) as a marker for transduction efficiency. […] The increased levels of active Nox1/Rac1 complex (FIG. 4B) in the nucleus, and increased ROS (FIGS. 5A and 5B) of DA cells in the presence of 6-OHDA, led one to investigate whether oxidative DNA damage occurs in the nucleus. […] As early as 3 days after striatal injection of 6-OHDA, 8-oxo-dG staining was increased in the SN (FIG. 5E). […]
For fluorescent immunostaining, N27 cells in the 4-well chamber slide were incubated for 1 h at 37° C. in 2% normal donkey serum containing either a rabbit polyclonal antibody against Nox1 (1:500), or p-c-jun (1:500). […] Specific binding was detected by incubation for 60 min at room temperature with a 1:200 dilution of secondary antibodies conjugated to AlexaFluor 546 dyes. […] Mounted slices were evaluated for fluorescence under settings for 546 and 488 nm emissions on a confocal microscope.

## NCCc1cc(O)c(O)cc1O [6-OHDA, 6-hydroxydopamine]
[1]
  GTP-bound active Rac1: Rac1 activation was observed
[2]
  DNA oxidative damage (8-oxo-dG immunoreactivity in the nucleus) caused by toxin: increased DNA oxidative damage
